# Reference: patent US9856279B2 (AGIOS PHARMACEUTICALS, INC, priority 2011, dated 2018)
# Target: IDH1 R132H (Homo sapiens, UniProt O75874, R132H)
# Assay: Assay for IDH1 R132H inhibitors (NADPH/aKG, resazurin detection)
# Assay type: biochemical
# Conditions: Table 3; enzyme assay, 50 minutes at room temperature; read-out: IC50 (IDH1 R132H Inhibition)
# Summary of the method: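 Compound added to substrate mix (8 uM NADPH, 2 mM aKG), then enzyme mix (0.2 μg/ml IDH1 R132H); 50 min RT in 20 mM Tris pH 7.5, 150 mM NaCl, 10 mM MgCl2, 0.03% BSA. Resazurin detection mix (30 μM) 5 min RT; resorufin fluorescence Ex544/Em590.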
# Chain of IDH1 R132H (O75874 whole entry R132H): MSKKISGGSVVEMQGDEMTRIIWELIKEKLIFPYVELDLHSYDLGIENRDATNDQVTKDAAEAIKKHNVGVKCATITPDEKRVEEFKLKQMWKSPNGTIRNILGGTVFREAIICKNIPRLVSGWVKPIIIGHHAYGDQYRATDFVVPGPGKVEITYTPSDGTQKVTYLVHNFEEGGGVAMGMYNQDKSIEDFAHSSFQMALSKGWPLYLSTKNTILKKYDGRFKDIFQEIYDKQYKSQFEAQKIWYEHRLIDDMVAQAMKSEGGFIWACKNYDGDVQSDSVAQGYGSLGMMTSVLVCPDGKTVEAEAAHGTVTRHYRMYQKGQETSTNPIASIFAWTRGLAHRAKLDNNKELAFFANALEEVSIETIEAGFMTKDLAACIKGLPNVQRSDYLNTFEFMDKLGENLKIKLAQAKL
row,Compound,IC50 [nM]
1,"Cc1occc1C(=O)N1CCN(c2nc(C(C)C)c(-c3ccc(C(C)C)cc3)cc2C#N)C[C@H]1C [Compound 202, (R)-6-isopropyl-5-(4-isopropylphenyl)-2-(3-methyl-4-(2-methylfuran-3-carbonyl)piperazin-1-yl)nicotinonitrile]",1000 to 5000
2,"Cc1occc1C(=O)N1CCN(c2nc(C(C)C)c(-c3ccoc3)cc2C#N)C[C@H]1C [Compound 203, (R)-5-(furan-3-yl)-6-isopropyl-2-(3-methyl-4-(2-methylfuran-3-carbonyl)piperazin-1-yl)nicotinonitrile]",1000 to 5000
3,"CC(C)c1nc(N2CCN(C(=O)c3ccoc3)[C@H](C)C2)c(C#N)cc1-c1ccoc1 [Compound 204, (R)-2-(4-(furan-3-carbonyl)-3-methylpiperazin-1-yl)-5-(furan-3-yl)-6-isopropylnicotinonitrile]",1000 to 5000
4,"COCCC(=O)N1CCN(c2nc(C(C)C)c(-c3ccoc3)cc2C#N)C[C@H]1C [Compound 205, (R)-5-(furan-3-yl)-6-isopropyl-2-(4-(3-methoxypropanoyl)-3-methylpiperazin-1-yl)nicotinonitrile]",1000 to 5000
5,"CC(C)c1ccc(-c2cc(C#N)c(N3CCN(C(=O)c4ccoc4)[C@H](C)C3)nc2C(C)C)cc1 [Compound 206, (R)-2-(4-(furan-3-carbonyl)-3-methylpiperazin-1-yl)-6-isopropyl-5-(4-isopropylphenyl)nicotinonitrile]",1000 to 5000
6,"COCCC(=O)N1CCN(c2nc(C(C)C)c(-c3ccc(F)cc3)cc2C#N)C[C@H]1C [Compound 207, (R)-5-(4-fluorophenyl)-6-isopropyl-2-(4-(3-methoxypropanoyl)-3-methylpiperazin-1-yl)nicotinonitrile]",≤ 1000
7,"COCCC(=O)N1CCN(c2nc(C(C)C)c(-c3ccc(C(C)C)cc3)cc2C#N)C[C@H]1C [Compound 208, (R)-6-isopropyl-5-(4-isopropylphenyl)-2-(4-(3-methoxypropanoyl)-3-methylpiperazin-1-yl)nicotinonitrile]",1000 to 5000
8,"COCCC(=O)N1CCN(c2nc(C(C)C)c(-c3cc4ccccc4o3)cc2C#N)C[C@H]1C [Compound 209, (R)-5-(benzofuran-2-yl)-6-isopropyl-2-(4-(3-methoxypropanoyl)-3-methylpiperazin-1-yl)nicotinonitrile]",1000 to 5000
9,"COCCC(=O)N1CCN(c2nc(C(C)C)c(-c3cncnc3)cc2C#N)C[C@H]1C [Compound 210, (R)-6-isopropyl-2-(4-(3-methoxypropanoyl)-3-methylpiperazin-1-yl)-5-0γ(pyrimidin-5-yl)nicotinonitrile]",5000 to 15000
10,"COCCC(=O)N1CCN(c2nc(C(C)C)c(-c3ccc4ccccc4c3)cc2C#N)C[C@H]1C [Compound 211, (R)-6-isopropyl-2-(4-(3-methoxypropanoyl)-3-methylpiperazin-1-yl)-5-(naphthalen-2-yl)nicotinonitrile]",1000 to 5000
11,"COCCC(=O)N1CCN(c2nc(C(C)C)c(-c3cccc(OC)c3)cc2C#N)C[C@H]1C [Compound 212, (R)-6-isopropyl-5-(3-methoxyphenyl)-2-(4-(3-methoxypropanoyl)-3-methylpiperazin-1-yl)nicotinonitrile]",≤ 1000
12,"COCCC(=O)N1CCN(c2nc(C(C)C)c(-c3ccncc3)cc2C#N)C[C@H]1C [Compound 213, (R)-2-isopropyl-6-(4-(3-methoxypropanoyl)-3-methylpiperazin-1-yl)-3,4′-bipyridine-5-carbonitrile]",1000 to 5000
13,"COCCC(=O)N1CCN(c2nc(C(C)C)c(-c3ccc(OC)cc3)cc2C#N)C[C@H]1C [Compound 214, (R)-6-isopropyl-5-(4-methoxyphenyl)-2-(4-(3-methoxypropanoyl)-3-methylpiperazin-1-yl)nicotinonitrile]",1000 to 5000
14,"COCCC(=O)N1CCN(c2nc(C(C)C)c(-c3ccc(Cl)cc3)cc2C#N)C[C@H]1C [Compound 215, (R)-5-(4-chlorophenyl)-6-isopropyl-2-(4-(3-methoxypropanoyl)-3-methylpiperazin-1-yl)nicotinonitrile]",1000 to 5000
15,"CCc1ccc(-c2cc(C#N)c(N3CCN(C(=O)CCOC)[C@H](C)C3)nc2C(C)C)cc1 [Compound 216, 5-(4-ethylphenyl)-6-isopropyl-2-(4-(3-methoxypropanoyl)-3-methylpiperazin-1-yl)nicotinonitrile]",1000 to 5000
16,"COCCC(=O)N1CCN(c2nc(C(C)C)c(-c3cccc4ccccc34)cc2C#N)C[C@H]1C [Compound 217, (R)-6-isopropyl-2-(4-(3-methoxypropanoyl)-3-methylpiperazin-1-yl)-5-(naphthalen-1-yl)nicotinonitrile]",1000 to 5000
17,"COCCC(=O)N1CCN(c2nc(C(C)C)c(-c3cccc(Cl)c3)cc2C#N)C[C@H]1C [Compound 218, (R)-5-(3-chlorophenyl)-6-isopropyl-2-(4-(3-methoxypropanoyl)-3-methylpiperazin-1-yl)nicotinonitrile]",1000 to 5000
18,"COCCC(=O)N1CCN(c2nc(C(C)C)c(-c3ccc(C)c(C)c3)cc2C#N)C[C@H]1C [Compound 220, (R)-5-(3,4-dimethylphenyl)-6-isopropyl-2-(4-(3-methoxypropanoyl)-3-methylpiperazin-1-yl)nicotinonitrile]",1000 to 5000
19,"COCCC(=O)N1CCN(c2nc(C(C)C)c(-c3ccc(C)c(F)c3)cc2C#N)C[C@H]1C [Compound 221, (R)-5-(3-fluoro-4-methylphenyl)-6-isopropyl-2-(4-(3-methoxypropanoyl)-3-methylpiperazin-1-yl)nicotinonitrile]",1000 to 5000
20,"COCCC(=O)N1CCN(c2nc(C(C)C)c(-c3ccccc3)cc2C#N)C[C@H]1C [Compound 222, (R)-6-isopropyl-2-(4-(3-methoxypropanoyl)-3-methylpiperazin-1-yl)-5-phenylnicotinonitrile]",≤ 1000
21,"COCCC(=O)N1CCN(c2nc(C(C)C)c(-c3ccc(OC)c(OC)c3)cc2C#N)C[C@H]1C [Compound 223, (R)-5-(3,4-dimethoxyphenyl)-6-isopropyl-2-(4-(3-methoxypropanoyl)-3-methylpiperazin-1-yl)nicotinonitr-ile]",≤ 1000
22,"COCCC(=O)N1CCN(c2nc(C(C)C)c(-c3ccc4c(c3)OCO4)cc2C#N)C[C@H]1C [Compound 224, (R)-5-(benzo[d][1,3]dioxol-5-yl)-6-isopropyl-2-(4-(3-methoxypropanoyl)-3-methylpiperazin-1-yl)nicotinonitrile]",≤ 1000
23,"COCCC(=O)N1CCN(c2nc(C3CC3)c(-c3cccc(C)c3)cc2C#N)C[C@H]1C [Compound 225, (R)-6-cyclopropyl-2-(4-(3-methoxypropanoyl)-3-methylpiperazin-1-yl)-5-m-tolylnicotinonitrile]",≤ 1000
24,"COCCC(=O)N1CCN(c2nc(C3CC3)c(-c3ccc(C(F)(F)F)cc3)cc2C#N)C[C@H]1C [Compound 226, (R)-6-cyclopropyl-2-(4-(3-methoxypropanoyl)-3-methylpiperazin-1-yl)-5-(4-(trifluoromethyl)phenyl)nicotinonitrile]",≤ 1000
25,"COCCC(=O)N1CCN(c2nc(C3CC3)c(-c3ccc(OC(F)(F)F)cc3)cc2C#N)C[C@H]1C [Compound 227, (R)-6-cyclopropyl-2-(4-(3-methoxypropanoyl)-3-methylpiperazin-1-yl)-5-(4-(trifluoromethoxy)phenyl)nicotinonitrile]",≤ 1000
